Assay results taken from patent US9309222B2, “Phenyl linked quinolinyl modulators of RORγt” (Janssen Pharmaceutica NV, priority 2012, dated 2016).
Several values for one entry are separate records, joined by “and”; a condition that tells them apart may be missing. Identical values can stand only once. Counter-ions that a name gives are not always drawn.

Assays:
[1] = target: T1, human RORγt ligand binding domain (RORγt LBD) (Homo sapiens, UniProt P51449); experiment: RORγt ThermoFluor assay (thermal shift, ligand binding affinity); conditions: estimated from concentration response of thermal shift
T1 construct: His-tag (N); TurboTEV protease cleavage site (ENLYFQG) (N); made in house; host or cells: E. coli (pHIS1, modified pET vector)
T1 sequence (P51449 with tags, fused parts or gaps): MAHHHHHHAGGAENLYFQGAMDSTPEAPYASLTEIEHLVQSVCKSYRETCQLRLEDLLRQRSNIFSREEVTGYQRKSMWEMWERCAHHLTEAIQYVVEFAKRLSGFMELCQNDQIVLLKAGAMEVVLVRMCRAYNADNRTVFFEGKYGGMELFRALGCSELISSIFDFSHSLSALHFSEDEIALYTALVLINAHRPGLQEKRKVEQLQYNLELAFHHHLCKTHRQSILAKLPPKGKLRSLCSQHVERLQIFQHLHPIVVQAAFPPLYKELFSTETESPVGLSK
How it was run: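 Thermal shift of 0.065 mg/mL RORγt with 60 μM 1,8-ANS in 100 mM Hepes pH 7.0, 10 mM NaCl, 2.5 mM GSH, 0.002% Tween-20. Compounds in 1:2 series from 10 mM DMSO stock. Dye fluorescence (500 nm emission) tracked versus temperature; ΔTm used to derive KD.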

human RORγt LBD = target: T2, human RORγt LBD (Homo sapiens, UniProt P51449); experiment: RORγt reporter assay (GAL4-RORγt LBD luciferase in HEK293T cells); type: cell-based; conditions: for RORγt reporter Assay, % inhibition @ 6 μM / IC50: HEK293T cells; for RORγt reporter Assay, % inhibition @ 6 μM: 6 μM compound; for IC50: 24 hours compound treatment; for inhibition at 6 µM: HEK-293T, read-out: RORγt reporter Assay, % inhibition @ 6 μM, HEK293T cells, 6 μM compound
T2 construct: expressed in transfected cells
T2 sequence (P51449 258-518): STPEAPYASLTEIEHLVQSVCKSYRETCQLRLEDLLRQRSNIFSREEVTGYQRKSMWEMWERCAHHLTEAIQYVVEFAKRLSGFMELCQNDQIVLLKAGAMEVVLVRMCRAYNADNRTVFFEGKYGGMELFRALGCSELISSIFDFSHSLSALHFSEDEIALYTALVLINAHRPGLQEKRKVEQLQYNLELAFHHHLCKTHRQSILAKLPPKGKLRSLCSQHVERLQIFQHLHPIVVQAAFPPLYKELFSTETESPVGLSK
How it was run: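 Read-out is the firefly-to-renilla luciferase ratio versus compound concentration, after 24 h compound exposure of cells in phenol-red-free DMEM/5% lipid-reduced FCS. Cells were HEK293T bulk-transfected with a GAL4-responsive firefly reporter (pGL4.31) and GAL4 DBD–wild-type human RORγt LBD fusion (pBIND, renilla as transfection/viability control).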

[2] = test system: IL-17 production by CD4 T cells; experiment: Human Th17 assay (IL-17 production by CD4 T cells under Th17 differentiation conditions); type: cell-based; conditions: IL-17 in supernatant after 3 days
Protocol: The human Th17 assay tests the effect of RORγt modulatory compounds on IL-17 production by CD4 T cells under conditions which favor Th17 differentiation. Total CD4^+ T cells were isolated from the peripheral blood mononuclear cells (PBMC) of healthy donors using a CD4^+ T cell isolation kit II, following the manufacturer's instructions (Miltenyi Biotec). […] 50 μL of compound at titrated concentrations in DMSO were added into each well at final DMSO concentration at 0.2%. Cells were incubated for 1 hour, then 50 μL of Th17 cell differentiation medium was added to each well. The final concentrations of antibodies and cytokines (R&D Systems) in differentiation medium were: 3×10^6/mL anti-CD3/CD28 beads (prepared using human T cell activation/expansion kit, Miltenyi Biotec), 10 μg/mL anti-IL4, 10 μg/mL anti-IFNγ, 10 ng/mL IL113, 10 ng/mL IL23, 50 ng/mL IL6, 3 ng/mL TGFβ and 20 U/mL IL2. Cells were cultured at 37° C. and 5% CO2 for 3 days. Supernatants were collected and the accumulated IL-17 in culture was measured by using MULTI-SPOT® Cytokine Plate following manufacture's instruction (Meso Scale Discovery). The plate was read using Sector Imager 6000, and IL-17 concentration was extrapolated from the standard curve. The IC50s were determined by GraphPad.

| Compound | Kd [1] | RORγt reporter Assay, % inhibition @ 6 μM (human RORγt LBD) | IC50 (human RORγt LBD) | IC50 ([2]; Homo sapiens, CD4+ T, 72 h) | inhibition at 6 µM (human RORγt LBD) | IC50 [2] |
| --- | --- | --- | --- | --- | --- | --- |
| COc1nc2c(C)cc(C(O)(c3ccc(C(F)(F)F)nc3)c3cncn3C)cc2c(C#N)c1-c1cccc(F)c1 (single isomer, unassigned) [Example 179c, 3-(3-Fluorophenyl)-6-(hydroxy(1-methyl-1H-imidazol-5-yl)(6-(trifluoromethyl)pyridin-3-yl)methyl)-2-methoxy-8-methylquinoline-4-carbonitrile] | 63 nM | 96% | 480 nM | ~1000 nM |  |  |
| COc1nc2c(C)cc(C(O)(c3ccc(F)cc3)c3cncn3C)cc2c(C#N)c1-c1cccc(F)c1 (single isomer, unassigned) [Example 180b, 3-(3-Fluorophenyl)-6-((4-fluorophenyl)(hydroxy)(1-methyl-1H-imidazol-5-yl)methyl)-2-methoxy-8-methylquinoline-4-carbonitrile] | 67000 nM |  | 1900 nM and ~3000 nM |  | 80% | ~5000 nM |
| COc1nc2c(C)cc(C(O)(c3ccc(F)cc3)c3cncn3C)cc2c(C#N)c1-c1cccc(F)c1 (single isomer, unassigned) [Example 180c, 3-(3-Fluorophenyl)-6-((4-fluorophenyl)(hydroxy)(1-methyl-1H-imidazol-5-yl)methyl)-2-methoxy-8-methylquinoline-4-carbonitrile] | 93 nM | 99% | 170 nM |  |  | 97 nM |
| CC(=O)N1CCC(C(O)(c2ccc3nc(C(F)(F)F)c(-c4ccccc4)c(C(F)(F)F)c3c2)c2cncn2C)CC1 (single isomer, unassigned) [Example 181b, 1-(4-(Hydroxy(1-methyl-1H-imidazol-5-yl)(3-phenyl-2,4-bis(trifluoromethyl)quinolin-6-yl)methyl)piperidin-1-yl)ethanone] | 27 nM |  | 62 nM | 120 nM | 99% |  |
| CC(=O)N1CCC(C(O)(c2ccc3nc(C(F)(F)F)c(-c4ccccc4)c(C(F)(F)F)c3c2)c2cncn2C)CC1 (single isomer, unassigned) [Example 181c, 1-(4-(Hydroxy(1-methyl-1H-imidazol-5-yl)(3-phenyl-2,4-bis(trifluoromethyl)quinolin-6-yl)methyl)piperidin-1-yl)ethanone] | 23 nM | 105% | 53 nM |  |  | 160 nM |
| COc1nc2c(C)cc(C(O)(c3ccc(C(F)(F)F)nc3)c3cncn3C)cc2c(Cl)c1-c1ccc(OC(F)(F)F)cc1 (single isomer, unassigned) [Example 183b, (4-Chloro-2-methoxy-8-methyl-3-(4-(trifluoromethoxy)phenyl)quinolin-6-yl)(1-methyl-1H-imidazol-5-yl)(6-(trifluoromethyl)pyridin-3-yl)methanol] | 3.7 nM | 34% | > 6000 nM | 1200 nM |  |  |
| COc1nc2c(C)cc(C(O)(c3ccc(C(F)(F)F)nc3)c3cncn3C)cc2c(Cl)c1-c1ccc(OC(F)(F)F)cc1 (single isomer, unassigned) [Example 183c, (4-Chloro-2-methoxy-8-methyl-3-(4-(trifluoromethoxy)phenyl)quinolin-6-yl)(1-methyl-1H-imidazol-5-yl)(6-(trifluoromethyl)pyridin-3-yl)methanol] | 190 nM | 73% | 360 nM |  |  | 870 nM |
| Cc1cc(C(O)(c2ccc(C(F)(F)F)nc2)c2cncn2C)cc2c(C#N)c(-c3ccc(F)cc3)c(C#N)nc12 (single isomer, unassigned) [Example 184c, 3-(4-Fluorophenyl)-6-(hydroxy(1-methyl-1H-imidazol-5-yl)(6-(trifluoromethyl)pyridin-3-yl)methyl)-8-methylquinoline-2,4-dicarbonitrile] | 41 nM | 97% | 260 nM | 700 nM |  |  |
| Cn1cncc1C(O)(c1ccc2nc(C(F)(F)F)c(-c3ccccc3)c(C(F)(F)F)c2c1)c1ccccn1 (single isomer, unassigned) [Example 185b, (1-Methyl-1H-imidazol-5-yl)(3-phenyl-2,4-bis(trifluoromethyl)quinolin-6-yl)(pyridin-2-yl)methanol] | 29 nM |  | 130 nM | 96 nM | 103% |  |
| OC(c1ccccc1)(c1cccnc1)c1ccc2nc(Cl)c(-c3ccccc3Cl)c(Cl)c2c1 (centres unmarked) [Example 6, (2,4-Dichloro-3-(2-chlorophenyl)quinolin-6-yl)(phenyl)(pyridin-3-yl)methanol] | 74 nM |  | 240 nM | ~6000 nM | 90% |  |
| COc1ccc(C(O)(c2ccc3nc(Cl)c(-c4ccccc4)c(Cl)c3c2)c2cncn2C)cn1 (centres unmarked) [Example 10, (2,4-Dichloro-3-phenylquinolin-6-yl)(6-methoxypyridin-3-yl)(1-methyl-1H-imidazol-5-yl)methanol•TFA] | 29 nM |  | 150 nM | 590 nM | 98% |  |
| Cn1cncc1C(O)(c1ccc(F)nc1)c1ccc2nc(Cl)c(-c3ccccc3)c(Cl)c2c1 (centres unmarked) [Example 12, (2,4-Dichloro-3-phenylquinolin-6-yl)(6-fluoropyridin-3-yl)(1-methyl-1H-imidazol-5-yl)methanol•TFA] | 22 nM |  | ~100 nM | 330 nM | 103% |  |
| Cn1cncc1C(O)(c1ccc(Cl)nc1)c1ccc2nc(Cl)c(-c3ccccc3)c(Cl)c2c1 (centres unmarked) [Example 13] | 15 nM |  | 85 nM | 530 nM | 106% |  |
| OC(c1ccc(Cl)cc1)(c1cccnc1)c1ccc2nc(Cl)c(-c3ccccc3)c(Cl)c2c1 (centres unmarked) [Example 17, (4-Chlorophenyl)(2,4-dichloro-3-phenylquinolin-6-yl)(pyridin-3-yl)methanol] | 210 nM |  | 270 nM | 940 nM | 102% |  |
| Cn1cncc1C(O)(c1ccncc1)c1ccc2nc(N3CCOCC3)c(-c3ccccc3)c(Cl)c2c1 (centres unmarked) [Example 20, (4-Chloro-2-morpholin-4-yl-3-phenylquinolin-6-yl)(1-methyl-1H-imidazol-5-yl)pyridin-4-ylmethanol•TFA] | 130 nM |  | 330 nM | 520 nM | 104% |  |
| OC(c1ccncc1)(c1ccncc1)c1ccc2nc(Cl)c(-c3ccccc3)c(Cl)c2c1 [Example 21, (2,4-Dichloro-3-phenylquinolin-6-yl)(dipyridin-4-yl)methanol•TFA] | 120 nM |  | 860 nM | ~900 nM | 91% |  |
| OC(c1ccc(F)cc1)(c1cccnc1)c1ccc2nc(Cl)c(-c3ccccc3)c(Cl)c2c1 (centres unmarked) [Example 22, (2,4-Dichloro-3-phenylquinolin-6-yl)(4-fluorophenyl)pyridin-3-ylmethanol] | 75 nM |  | 220 nM | 440 nM | 104% |  |
| OC(c1cccnc1)(c1cccnc1)c1ccc2nc(Cl)c(-c3ccccc3)c(Cl)c2c1 [Example 24, (2,4-Dichloro-3-phenylquinolin-6-yl)(dipyridin-3-yl)methanol•TFA] | 24 nM |  | 79 nM | 320 nM | 104% | ~200 nM |
| OC(c1cccnc1)(c1cccc(Cl)c1)c1ccc2nc(Cl)c(-c3ccccc3)c(Cl)c2c1 (centres unmarked) [Example 25, (3-Chlorophenyl)(2,4-dichloro-3-phenylquinolin-6-yl)(pyridin-3-yl)methanol] | 65 nM |  | 94 nM and ~90 nM | 340 nM | 99% |  |
